Measured values: patent US9951076B2, “Deuterated pentylenetetrazoles for improving cognitive function” (Balance Therapeutics, Inc., priority 2011, dated 2018)

How the values were obtained:
[1] = Metabolic stability in human liver microsomes; type: in vitro ADME; conditions: for t1/2 increase over t1/2 of PTZ / in vitro t1/2 compared to the t1/2 of PTZ: human liver microsomes; for in vitro t1/2 compared to the t1/2 of PTZ: under the assay conditions tested; for half-life at 1 μM / microsomal CLint at 1 μM: pH 7.4, 1 mg/mL human liver microsomes, 1 μM test compound, NADPH regenerating system, 37° C., 0-45 min
Description: Human liver microsomes (Lot# FJM) were obtained from Celsis (Baltimore, Md.). Components of the NADPH regenerating system solution A (Lot#29850) and B (Lot#28594) were obtained from BD Gentest (Woburn, Mass.). […] All solvents and buffers were obtained from commercial sources and used without further purification.
NADPH regenerating system (1.3 mM NADP^+, 3.3 mM glucose-6-phosphate, 0.4 U/mL glucose-6-phosphate dehydrogenase, and 3.3 mM magnesium chloride) were prepared by mixing 5 volume of solution A and 1 volume of solution B and pre-warmed at 37° C. in a shaking water bath. Reactions were initiated by adding NADPH regenerating system to the incubation mixtures. After 0, 5, 10, 15, 30 and 45 min of incubation, 0.1 mL reaction mixtures were removed from the incubation plate and mixed with 0.15 mL of ice-cold acetonitrile in an appropriate well of a 96-well crash plate. The 96-well crash plate was placed on ice for 15 min, and samples were centrifuged (2,500 g, 10 min, 4° C.) to precipitate protein. The supernatants were diluted 1:1 (v/v) with water containing 0.015 μM verapamil (internal standard) in 96-well shallow injection plate, which was sealed and submitted for LC/MS or LC/MS/MS analysis utilitzing a API 150 single quadrupole mas spectrometer.
The residual compound remaining (% R) was determined from LC/MS peak areas by comparison to a zero time point. Metabolic half-life (t1/2) and intrinsic clearance (CLint) values were calculated from the slope of ln(%) plotted vs. time.

[2] = cited from earlier work
[3] = orally administered, humans; cited from earlier work

Row | SMILES | t1/2 increase over t1/2 of PTZ [1] [%] | in vitro t1/2 compared to the t1/2 of PTZ [1] | half-life at 1 μM [1] [h] | microsomal CLint at 1 μM [1] [µL/min/mg] | time of peak concentration in blood ([2]; after intravenous (IV) or intraperitoneal (IP) delivery) [min] | plasma half-life ([2]; in vivo) | kindling dose [3]
1 | [2H]C1([2H])c2nnnn2C([2H])([2H])C([2H])([2H])C([2H])([2H])C1([2H])[2H] [Compound 1, d10-6,7,8,9-Tetrahydro-5H-tetrazolo[1,5-a]azepine] | 45.1 | increased | 12.6 | 0.9 |  |  | 
2 | [2H]C1([2H])CCCC([2H])([2H])n2nnnc21 [Compound 2, 6,6,10,10-d4-6,7,8,9-Tetrahydro-5H-tetrazolo[1,5-a]azepine] | 6.3 | increased | 9.23 | 1.3 |  |  | 
3 | [2H]C1([2H])Cc2nnnn2CC([2H])([2H])C1([2H])[2H] [Compound 3] | −2.9 |  | 8.43 | 1.4 |  |  | 
4 | [2H]C1([2H])CC([2H])([2H])c2nnnn2C([2H])([2H])C1 [Compound 4, 6,6,8,8,10,10-d6-6,7,8,9-tetrahydro-5H-tetrazolo[1,5-a]-azepine] | 8.8 | increased | 9.45 | 1.2 |  |  | 
5 | C1CCc2nnnn2CC1 [PTZ, pentylenetetrazole] |  |  | 8.68 | 1.3 | ≤ 10 | about 60 minutes | approximately 20 mg/kg
6 | C[C@]12CC[C@H]3[C@@H](CCC4=CC(=O)CC[C@@]43C)[C@@H]1CC[C@@H]2O [testosterone, reference compound] |  |  |  | 76 |  |  | 
